Experimental data reported in patent US20240342292A1, “Compounds for the Degradation of EGFR Kinase” (BeiGene Switzerland GmbH, priority 2021, published 2024).

How the values were obtained:
Del19/T790M/C797S EGFR = assay: EGFR degradation HTRF assay in H1975-clone #28 (DTC) cells; format: cell-based; settings: H1975 # 28 DTC (Del19/T790M/C797S), 16h treatment; for DC50: HTRF; for Dmax (%): maximum percentage of degradation
How it was run: (§1)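 H1975 clones stably overexpressing mutant EGFR by lentivirus, with endogenous EGFR knocked out by sgRNA and homozygosity confirmed by sequencing, were treated 16 h at 37 °C with compounds in 0.2% DMSO medium, 8 doses from 10 uM in 5-fold dilution. Lysates were read by HTRF (665/620 nm); DC50 came from a four-parameter fit.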

L858R/T790M/C797S EGFR = target: T1, L858R/T790M/C797S EGFR (Homo sapiens, UniProt P00533, C797S/L858R/T790M); assay: EGFR degradation HTRF assay in H1975-clone #25 (LTC) cells; format: cell-based; settings: 16h treatment; for DC50: H1975 # 25-LTC (L858R/T790M/C797S), HTRF; for Dmax: NCI-H1975, H1975 # 25-LTC (L858R/T790M/C797S), maximum percentage of degradation
T1 construct: expressed in transfected cells; host or cells: H1975 clone #25 (lentiviral over-expression, endogenous EGFR knocked out by sgRNA)
T1 sequence (P00533 25-1210 T790M/C797S/L858R): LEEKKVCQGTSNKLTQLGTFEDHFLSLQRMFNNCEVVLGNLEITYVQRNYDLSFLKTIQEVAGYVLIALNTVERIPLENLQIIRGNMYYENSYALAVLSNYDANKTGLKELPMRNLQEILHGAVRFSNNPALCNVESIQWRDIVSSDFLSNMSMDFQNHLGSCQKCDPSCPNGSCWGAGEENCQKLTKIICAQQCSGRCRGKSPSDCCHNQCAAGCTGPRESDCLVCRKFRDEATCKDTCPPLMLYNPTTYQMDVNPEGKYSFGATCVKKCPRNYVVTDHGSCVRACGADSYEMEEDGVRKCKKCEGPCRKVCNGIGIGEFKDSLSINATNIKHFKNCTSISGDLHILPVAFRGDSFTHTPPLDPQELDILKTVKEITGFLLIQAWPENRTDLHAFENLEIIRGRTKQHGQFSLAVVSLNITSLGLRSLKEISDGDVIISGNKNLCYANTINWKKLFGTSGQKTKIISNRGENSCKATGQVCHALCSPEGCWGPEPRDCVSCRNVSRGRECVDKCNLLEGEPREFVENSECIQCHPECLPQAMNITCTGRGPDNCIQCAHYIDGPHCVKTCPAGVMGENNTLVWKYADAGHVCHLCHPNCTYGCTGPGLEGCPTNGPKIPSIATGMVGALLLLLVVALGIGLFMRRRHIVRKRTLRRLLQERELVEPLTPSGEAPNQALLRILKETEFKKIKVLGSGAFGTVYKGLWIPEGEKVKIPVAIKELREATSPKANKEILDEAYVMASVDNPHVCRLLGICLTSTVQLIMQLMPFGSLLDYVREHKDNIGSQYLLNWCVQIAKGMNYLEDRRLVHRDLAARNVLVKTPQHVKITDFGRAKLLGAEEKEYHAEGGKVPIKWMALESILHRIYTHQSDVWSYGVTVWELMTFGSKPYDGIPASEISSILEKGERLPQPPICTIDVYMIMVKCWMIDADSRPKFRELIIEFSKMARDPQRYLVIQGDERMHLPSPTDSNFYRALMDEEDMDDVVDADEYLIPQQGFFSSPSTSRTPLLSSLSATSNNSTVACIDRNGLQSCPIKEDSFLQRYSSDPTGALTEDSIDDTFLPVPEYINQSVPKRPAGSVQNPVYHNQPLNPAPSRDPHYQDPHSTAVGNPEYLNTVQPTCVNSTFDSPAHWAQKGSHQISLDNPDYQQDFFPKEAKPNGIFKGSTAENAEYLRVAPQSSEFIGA
How it was run: as §1

Structure (SMILES)	DC50 (Del19/T790M/C797S EGFR)	Dmax (%) (Del19/T790M/C797S EGFR)	DC50 (L858R/T790M/C797S EGFR)	Dmax (L858R/T790M/C797S EGFR)
Cc1cc2cc(n1)-c1cnn(C3CC3)c1OCCC[C@@H](C)CN1/C(=N/C2=O)Nc2ccc(CN3CCN(C(=O)[C@H]4CN(c5cc(F)c([C@H]6CCC(=O)NC6=O)c(F)c5)CC4(C)C)CC3)cc21 [Example 165, (R)-3-(4-((R)-4-(4-(((R,E)-11-cyclopropyl-2^6,7-dimethyl-3-oxo-5^2,5^3-dihydro-1^1H,5^1H-11-oxa-4-aza-5(2,1)-benzo[d]imidazola-2(2,4)-pyridina-1(4,5)-pyrazolacycloundecaphane-5^6-)n-methyl)piperazine-1-carbonyl)-3,3-dimethylpyrrolidin-1-yl)-2,6-difluorophenyl)piperidine-2,6-dione]	2.95 nM	74.73%	3.1 nM	79.9%
Cc1cc2cc(n1)-c1cnn(C)c1OCC[C@H]1C[C@@H]1CN1/C(=N/C2=O)Nc2ccc(N3CCN([C@H]4C[C@H](Nc5cc(F)c([C@H]6CCC(=O)NC6=O)c(F)c5)C4)CC3)cc21 (single isomer, unassigned) [Example 443]	0.633 nM	78.26%	1.25 nM	86.6%
COC[C@H]1CN(C(=O)C2CCN(c3ccc4c(c3)N3C[C@H](C)CCCOc5c(cnn5C)-c5cc(cc(C)n5)C(=O)/N=C/3N4)CC2)CCN1c1cc(F)c([C@H]2CCC(=O)NC2=O)c(F)c1 [Example 363, (R)-3-(2,6-difluoro-4-((R)-2-(methoxymethyl)-4-(1-((R,E)-1^1,2^6,7-trimethyl-3-oxo-5^2,5^3-dihydro-1^1H,5^1H-11-oxa-4-aza-5(2,1)-benzo[d]imidazola-2(2,4)-pyridina-1(4,5)-pyrazolacycloundecaphane-5^6-yl)piperidine-4-carbonyl)piperazin-1-yl)phenyl)piperidine-2,6-Dione]	0.614 nM	78.54%	0.643 nM	87.5%
Cc1cc2cc(n1)-c1cnn(C)c1OCCCC1(CC1)CN1/C(=N/C2=O)Nc2ccc(C(=O)N(C)C3CCN(CCc4cc(F)c([C@H]5CCC(=O)NC5=O)c(F)c4)CC3)cc21 [Example 236, (R,E)-N-(1-(4-(2,6-dioxopiperidin-3-yl)-3,5-difluorophenethyl)piperidin-4-yl)-N,1′,6′-trimethyl-3′-oxospiro[cyclopropane-1,7′-11-oxa-4-aza-5(2,1)-benzo[d]imidazola-2(2,4)-pyridina-1(4,5)-pyrazolacycloundecaphane]-6′-carboxamide]	0.42 nM	87.56%	0.546 nM	88.4%
Cc1cc2cc(n1)-c1cnn(C)c1OCCC[C@@H](C)CN1/C(=N/C2=O)Nc2ccc(CN3CC4CCC(C3)N4C(=O)[C@@H]3CCN(c4cc(F)c([C@H]5CCC(=O)NC5=O)c(F)c4)C3)cc21 [Example 83, (3R)-3-(2,6-difluoro-4-((3R)-3-(3-(((R,E)-1^1,2^6,7-trimethyl-3-oxo-5^2,5^3-dihydro-1^1H,5^1H-11-oxa-4-aza-5(2,1)-benzo[d]imidazola-2(2,4)-pyridina-1(4,5)-pyrazolacycloundecaphane-5^6-yl)methyl)-3,8-diazabicyclo[3.2.1]octane-8-carbonyl)pyrrolidin-1-yl)phenyl)piperidine-2,6-dione]	2 nM	73.0%	2 nM	82.5%
Cc1cc2cc(n1)-c1cnn(C)c1OCCC[C@@H](C)CN1/C(=N/C2=O)Nc2ccc(C(=O)N(C)[C@@H]3CCN(CCc4cc(F)c([C@H]5CCC(=O)NC5=O)c(F)c4)C[C@H]3C)cc21 [Example 257, (R,E)-N—((3R,4R)-1-(4-((R)-2,6-dioxopiperidin-3-yl)-3,5-difluorophenethyl)-3-methylpiperidin-4-yl)-N,1^1,2^6,7-tetramethyl-3-oxo-5^2,5^3-dihydro-1^1H,5^1H-11-oxa-4-aza-5(2,1)-benzo[d]imidazola-2(2,4)-pyridina-1(4,5)-pyrazolacycloundecaphane-5^6-carboxamide]	0.57 nM	80.82%	0.512 nM	88%
Cc1cc2cc(n1)-c1cnn(C)c1OCCC[C@@H](C)CN1/C(=N/C2=O)Nc2ccc(N3CCN(C4CCN(c5cc(F)c([C@H]6CCC(=O)NC6=O)c(F)c5)CC4)CC3=O)cc21 [Example 374, (R)-3-(2,6-difluoro-4-(4-(3-oxo-4-((R,E)-1^1,2^6,7-trimethyl-3-oxo-5^2,5^3-dihydro-1^1H,5^1H-11-oxa-4-aza-5(2,1)-benzo[d]imidazola-2(2,4)-pyridina-1(4,5)-pyrazolacycloundecaphane-5^6-yl)piperazin-1-yl)piperidin-1-yl)phenyl)piperidine-2,6-dione]	0.583 nM	81.48%	0.591 nM	92.7%
Cc1cc2cc(n1)-c1cnn(C)c1OCCC[C@@H](C)CN1/C(=N/C2=O)Nc2ccc(C(=O)N3CCC4(CC3)CN(C(=O)C3CN(c5cc(F)c([C@H]6CCC(=O)NC6=O)c(F)c5)C3)C4)cc21 [Example 221, (R)-3-(2,6-difluoro-4-(3-(7-((R,E)-1^1,2^6,7-trimethyl-3-oxo-5^2,53-dihydro-1^1H,5^1H-11-oxa-4-aza-5(2,1)-benzo[d]imidazola-2(2,4)-pyridina-1(4,5)-pyrazolacycloundecaphane-5^6-carbonyl)-2,7-diazaspirononane-2-carbonyl)azetidin-1-yl)phenyl)piperidine-2,6-dione]	0.901 nM	85.41%	0.705 nM	94%
Cc1cc2cc(n1)-c1cnn(C)c1OCCC[C@@H](C)CN1/C(=N/C2=O)Nc2ccc(C(=O)N3CCC(NCCc4cc(F)c([C@H]5CCC(=O)NC5=O)c(F)c4)CC3)cc21 [Example 300, (R)-3-(2,6-difluoro-4-(2-((1-((R,E)-1^1,2^6,7-trimethyl-3-oxo-5^2,5′-dihydro-1^1H,5^1H-11-oxa-4-aza-5(2,1)-benzo[d]imidazola-2(2,4)-pyridina-1(4,5)-pyrazolacycloundecaphane-5^6-carbonyl)piperidin-4-yl)amino)ethyl)phenyl)piperidine-2,6-dione]	1.48 nM	73.74%	0.653 nM	88.2%
Cc1cc2cc(n1)-c1cnn(C)c1OCCC[C@@H](C)CN1/C(=N/C2=O)Nc2ccc(N3CCN(C[C@H]4CCN(c5cc(F)c([C@H]6CCC(=O)NC6=O)c(F)c5)C4)CC3=O)cc21 [Example 464, (R)-3-(2,6-difluoro-4-((R)-3-((3-oxo-4-((R,E)-1^1,2^6,7-trimethyl-3-oxo-5^2,5^3-dihydro-1^1H,5^1H-11-oxa-4-aza-5(2,1)-benzo[d]imidazola-2(2,4)-pyridina-1(4,5)-pyrazolacycloundecaphane-5^6-yl)piperazin-1-yl)methyl)pyrrolidin-1-yl)phenyl)piperidine-2,6-dione]	0.678 nM	82.71%	0.646 nM	85%
Cc1cc2cc(n1)-c1cnn(C)c1OCCC[C@@H](C)CN1/C(=N/C2=O)Nc2ccc(N3CCN(C4CCN(c5cc(F)c([C@H]6CCC(=O)NC6=O)c(F)c5)CC4)[C@H](C)C3)cc21 [Example 388, (R)-3-(2,6-difluoro-4-(4-((R)-2-methyl-4-((R,E)-1^1,2^6,7-trimethyl-3-oxo-5^2,5^3-dihydro-1^1H,5^1H-11-oxa-4-aza-5(2,1)-benzo[d]imidazola-2(2,4)-pyridina-1(4,5)-pyrazolacycloundecaphane-5^6-yl)piperazin-1-yl)piperidin-yl)phenyl)piperidine-2,6-dione]	0.776 nM	80.94%	1.11 nM	86.5%
COCc1cc2c(cc1N1CCN(C3CCN(c4cc(F)c([C@H]5CCC(=O)NC5=O)c(F)c4)CC3)CC1)N1C[C@H](C)CCCOc3c(cnn3C)-c3cc(cc(C)n3)C(=O)/N=C/1N2 [Example 390, (R)-3-(2,6-difluoro-4-(4-(4-((R,E)-5^5-(methoxymethyl)-1^1,2^6,7-trimethyl-3-oxo-5^2,5^3-dihydro-1^1H,5^1H-11-oxa-4-aza-5(2,1)-benzo[d]imidazola-2(2,4)-pyridina-1(4,5)-pyrazolacycloundecaphane-5^6-yl)piperazin-1-yl)piperidin-1-yl)phenyl)piperidine-2,6-dione]	1.69 nM	73.87%	2.49 nM	87.7%
Cc1cc2cc(n1)-c1cnn(C)c1OCCC[C@@H](C)CN1/C(=N/C2=O)Nc2ccc(C(=O)N[C@@H]3CCN(CCc4cc(F)c([C@H]5CCC(=O)NC5=O)c(F)c4)CC3(C)C)cc21 [Example 263, (R,E)-N—((R)-1-(4-((R)-2,6-dioxopiperidin-3-yl)-3,5-difluorophenethyl)-3,3-dimethylpiperidin-4-yl)-1^1,2^6,7-trimethyl-3-oxo-5^2,5^3-dihydro-1H,5^1H-11-oxa-4-aza-5(2,1)-benzo[d]imidazola-2(2,4)-pyridina-1(4,5)-pyrazolacycloundecaphane-5^6-carboxamide]	0.597 nM	78.67%	0.351 nM	93.6%
Cc1cc2cc(n1)-c1cnn(C)c1OCCC[C@@H](C)CN1/C(=N/C2=O)Nc2ccc(N(C)C3CCN(C4CCN(c5cc(F)c([C@H]6CCC(=O)NC6=O)c(F)c5)CC4)CC3)cc21 [Example 214, (R)-3-(2,6-difluoro-4-(4-(methyl((R,E)-1^1,2^6,7-trimethyl-3-oxo-5^2,5^3-dihydro-1^1H,5^1H-11-oxa-4-aza-5(2,1)-benzo[d]imidazola-2(2,4)-pyridina-1(4,5)-pyrazolacycloundecaphane-5-yl)amino)-[1,4′-bipiperidin]-1′-yl)phenyl)piperidine-2,6-dione]	1.32 nM	72.32%	2.59 nM	79.4%
